Source: PubChem BioAssay AID2005 (Sanford-Burnham Center for Chemical Genomics, 2009)
Calls of active or inactive are those of the source.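 How the source made its calls: active means plate Z score at or below -3, or inhibition of at least 30% at 20 µM; inactive means the rest.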

Experiment: compounds lowering EGFP fluorescence in F442A cells, dose response, counter-screen for p/CIP destabilizer project (AID 2005);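 further: cells express EGFP alone from a CMV promoter as a counter screen for p/CIP-EGFP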
Conditions: F442A EGFP cells, EGFP fluorescence, 16 h, stronger effect = higher value

| SMILES | inhibition (EGFP decrease, at 10 µM) [%] | inhibition (at 20 µM) |
| --- | --- | --- |
| CC(C)OP(=O)(O)NC(=O)c1ccccc1 | 3.6 | 18.5% (inactive) |
| CC(OC(=O)C1CC1)C(=O)Nc1ccc([N+](=O)[O-])cc1Cl (stereo not drawn) | 14.2 | 3.9% (inactive) |
| Cc1cc(N2C(=O)C(O)=C(C(=O)c3ccco3)C2c2ccc([N+](=O)[O-])cc2)no1 (stereo not drawn) | 39.5 | 4.5% (inactive) |
| CCn1cnc2cc(NCc3cccc(OC)c3O)ccc21 | 16.7 | 10.7% (inactive) |
| CN(Cc1ccco1)C(=O)C1CCC(=O)N(CCc2cccc(F)c2)C1 (stereo not drawn) | 5.1 | 1.2% (inactive) |
| COc1ccccc1-c1cn[nH]c(=S)n1 | 24.4 | 8.7% (inactive) |
| CCOC(=O)C(OC(=O)c1sc(=S)n(C)c1C)C(C)=O (stereo not drawn) | 27.1 | 35.7% |
| COCCN(CC(=O)NC1CCCCC1)C(=O)CSc1nc2ccccc2o1 | 7.4 | 28.7% (inactive) |
| Cc1nc2cc3ccccc3cc2c(=O)[nH]1 | 12.2 | 3.3% (inactive) |
| CC(C)c1ccc(NC(=S)NN2C(C)CCCC2C)cc1 (stereo not drawn) | 8.5 | 0.8% (inactive) |
| Cn1c(C(=O)NCc2cccnc2)cc2sc(Cl)cc21 | 28.8 | 32.9% |
| CC1CCCCC1NC(=O)CN1C(=O)c2ccccc2S1(=O)=O (stereo not drawn) | -11.2 | 13.6% (inactive) |
| Cc1ccc(NC(=O)CC2C(=O)NC3CCCCC3N2C(=O)c2ccc(F)cc2)cc1C (stereo not drawn) | 12.9 | 24.7% (inactive) |
| O=C(c1ccccc1)N1CCN(C(=O)c2cc3ccccc3o2)CC1 | 8.7 | 17.1% (inactive) |
| COc1ccc(N2CCN(C(=O)c3cn(C)c(=O)c4c3c3ccccc3n4C)CC2)cc1 | 6.2 | 20.1% (inactive) |
| COCCC(=O)N1CCC(Oc2ccc(C(=O)N3CCCCCCC3)cc2)CC1 | 1.3 | 14% (inactive) |
| CC(=O)N1CCN(C(=O)CCCNC(=O)c2ccc(Cl)cc2)CC1 | 21 | -1.6% (inactive) |
| CC(C(=O)N1c2ccccc2CCc2ccccc21)n1nnc(-c2ccc(N(C)C)cc2)n1 (stereo not drawn) | 15.2 | 6.8% (inactive) |
| O=C(c1ccco1)N1CCN(C(=O)c2ccccc2[N+](=O)[O-])CC1 | 10.5 | 11.1% (inactive) |
| O=CN1CCC(=O)N(Cc2ccccc2)c2ccccc21 | 33.4 | 23.1% (inactive) |

| SMILES | inhibition (EGFP decrease, at 10 µM) [%] | inhibition (at 20 µM) |
| --- | --- | --- |
| COC(=O)c1c(NC(=O)c2ccc(C)cc2)sc(Cc2ccccc2)c1C | 29.9 | -2.4% (inactive) |
| O=C(Cc1ccccc1)NC(=S)Nc1cccc(C(F)(F)F)c1 | 14.2 | 16.8% (inactive) |
| COc1cccc(-c2noc(-c3ccc(Cl)nc3)n2)c1 | -8.2 | -3.6% (inactive) |
| O=C(O)[C@@H]1CCCN1c1ncnc2sc3c(c12)CCC3 | 0.9 | 31.1% |
| COc1ccccc1OCc1ccc(C(=O)n2nc(C)c(Cl)c2C)o1 | -1.3 | 2.6% (inactive) |
| CCCC(=O)C1=C(N(C)c2ccccc2)CC(C)(C)CC1=O | 24.9 | 21.6% (inactive) |
| CC(=O)c1c(N2CCN(Cc3ccc4c(c3)OCO4)CC2)nc(=S)n(-c2ccccc2)c1C | 7.3 | 23.7% (inactive) |
| O=[N+]([O-])c1ccc(-c2nnc(CNC3CCCC3)o2)cc1 | 17.3 | 25.1% (inactive) |
| CC(C)c1ccc(/C=N/NC(=O)c2cccc(Cl)c2)cc1 | 16.9 | 44.6% |
| O[C@@H](CNC[C@H](O)c1ccccc1)c1ccccc1 | 28 | -10.9% (inactive) |
| O=C(O)c1cccc(NC(=O)C2C3C=CC(C3)C2C(=O)O)c1 (stereo not drawn) | 17.4 | 18% (inactive) |
| CC(C)CCN1C(=O)c2ccc(C(=O)NCC3CCCO3)cc2C1=O (stereo not drawn) | 8.4 | 3.8% (inactive) |
| CCCCN(CCCC)CCCNC(=O)C12CN(Cc3ccccc3)CC1C(c1cccc([N+](=O)[O-])c1)=NO2 (stereo not drawn) | 20.1 | -9.9% (inactive) |
| Cc1cccc(C)c1OCc1cc(C(=O)N2CCCC2c2nonc2C)no1 (stereo not drawn) | 17.2 | 11.5% (inactive) |
| O=C(c1cc(-c2ccccc2)on1)N1CCN(C(=O)c2ccco2)CC1 | 18.5 | 4.9% (inactive) |
| CCc1ccc(NC(=O)CCn2c(=O)oc3ccccc32)cc1 | 11.9 | 3.3% (inactive) |
| Cc1ccc(NC2=NC3(CCCCC3)N=C(N)N2)c(C)c1 | 32.9 | 41.8% |
| COc1ccccc1CNS(=O)(=O)c1cccc(S(=O)(=O)N2CCOCC2)c1 | 3.3 | 4.8% (inactive) |
| CCN(CC)C(=O)c1oc2ccc(S(=O)(=O)N3CC(C)CC(C)C3)cc2c1C (stereo not drawn) | 29.3 | 49.5% |
